Read-outs that look alike come from different tables or passages of the source.

These results are taken from patent US20240150377A1, “MODULATORS OF CYSTIC FIBROSIS TRANSMEMBRANE CONDUCTANCE REGULATOR” (VERTEX PHARMACEUTICALS INCORPORATED, priority 2020, published 2024).

The target of this assay is T1, CFTR (Homo sapiens, UniProt P13569, DEL508-508).
T1 construct: endogenous in cells; host or cells: primary human bronchial epithelial cells from CF subjects (F508del/MF-HBE), differentiated at air-liquid interface
T1 sequence (P13569 with tags, fused parts or gaps DEL508-508): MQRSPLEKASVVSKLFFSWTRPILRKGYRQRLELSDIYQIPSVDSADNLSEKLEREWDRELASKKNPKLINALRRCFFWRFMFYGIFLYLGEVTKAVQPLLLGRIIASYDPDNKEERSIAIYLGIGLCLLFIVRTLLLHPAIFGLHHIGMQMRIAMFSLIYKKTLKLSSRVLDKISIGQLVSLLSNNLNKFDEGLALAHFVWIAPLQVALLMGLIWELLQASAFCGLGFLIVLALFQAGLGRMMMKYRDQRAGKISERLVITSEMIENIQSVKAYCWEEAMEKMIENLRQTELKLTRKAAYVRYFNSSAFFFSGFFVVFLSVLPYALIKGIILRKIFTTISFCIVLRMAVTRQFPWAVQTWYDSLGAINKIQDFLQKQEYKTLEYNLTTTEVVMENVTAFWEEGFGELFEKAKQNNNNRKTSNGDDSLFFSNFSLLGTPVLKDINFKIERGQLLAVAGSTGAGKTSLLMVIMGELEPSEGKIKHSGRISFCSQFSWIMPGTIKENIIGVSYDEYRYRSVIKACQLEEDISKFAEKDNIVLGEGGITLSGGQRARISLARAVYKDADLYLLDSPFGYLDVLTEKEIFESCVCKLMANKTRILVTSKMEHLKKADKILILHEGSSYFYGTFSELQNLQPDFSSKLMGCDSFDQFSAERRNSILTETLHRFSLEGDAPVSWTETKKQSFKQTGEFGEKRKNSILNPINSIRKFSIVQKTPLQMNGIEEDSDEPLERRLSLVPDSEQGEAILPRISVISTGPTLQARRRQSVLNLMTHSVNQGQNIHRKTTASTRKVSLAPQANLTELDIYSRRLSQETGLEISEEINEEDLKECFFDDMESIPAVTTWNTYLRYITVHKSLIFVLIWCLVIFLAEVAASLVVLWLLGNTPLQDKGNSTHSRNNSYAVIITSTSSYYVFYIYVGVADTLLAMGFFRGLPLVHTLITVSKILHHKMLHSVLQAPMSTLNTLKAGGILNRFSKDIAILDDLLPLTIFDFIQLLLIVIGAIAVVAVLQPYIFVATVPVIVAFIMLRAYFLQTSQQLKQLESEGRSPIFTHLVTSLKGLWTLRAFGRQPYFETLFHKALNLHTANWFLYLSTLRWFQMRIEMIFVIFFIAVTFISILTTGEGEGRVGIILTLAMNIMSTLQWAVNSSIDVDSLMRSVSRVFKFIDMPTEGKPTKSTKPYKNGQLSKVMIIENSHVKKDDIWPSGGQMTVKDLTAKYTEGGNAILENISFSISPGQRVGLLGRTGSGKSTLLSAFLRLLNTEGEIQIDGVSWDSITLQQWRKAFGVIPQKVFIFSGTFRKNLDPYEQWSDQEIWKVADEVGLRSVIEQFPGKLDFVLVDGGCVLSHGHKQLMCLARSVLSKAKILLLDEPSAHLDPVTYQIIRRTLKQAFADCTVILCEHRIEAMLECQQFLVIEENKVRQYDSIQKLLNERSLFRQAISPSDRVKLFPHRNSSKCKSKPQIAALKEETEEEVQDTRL
The assay is described as follows: HBE assay: Ussing chamber assay of CFTR-mediated short-circuit currents. The assay is classed as cell-based. To be noted: for EC50: read-out: HBE EC50. Summed up: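 CFTR-mediated Isc (μA/cm²) equals the peak response to apical 20 μM forskolin minus the residual after a 20 μM each BPO/GlyH-101/CFTR inhibitor 172 cocktail, recorded in Ussing chambers at Vhold 0 mV, 37 °C, pH 7.4, with 30 μM apical amiloride. Cells were F508del/MF HBE cultures preincubated 18-24 h with corrector (concentration range or 10 μM) plus 1 μM ivacaftor in 20% human serum.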

Where [1] appears, read: Table 13, read-out: HBE Max Activity (%).
The mark [2] stands for this setting: Table 11, read-out: HBE Max Activity (%).
The mark [3] stands for this setting: Table 13, at 10 μM, read-out: HBE Activity at 10 μM (%).
[4] abbreviates: HBE assay, read-out: HBE Max activity (%).
[5] abbreviates: Table 12, read-out: HBE Max Activity (%).
[6] abbreviates: Table 10, at 10 μM, read-out: HBE activity at 10 (μM) (%).

Consider `Cc1cccc(C)c1-c1cc2nc(n1)NS(=O)(=O)c1cccc(c1)C(=O)N(Cc1ncc(C3CC4(CCC4)C3)cn1)[C@H](CC(C)(C)C)CO2` [Compound 160], for which the 50% effective concentration (EC50) (usually the midpoint of the concentration-response curve) (Table 13) is below 1000 nM. For the same compound, the Emax under setting [1] is above 60%. Take `Cc1cccc(C)c1-c1cc2nc(n1)NS(=O)(=O)c1cccc(c1)C(=O)N(Cc1cnc(N3CCC(C)(C)CC3)cn1)[C@H](CC(C)(C)C)CO2` [Compound 608]: the EC50 (Table 11) was below 1000 nM. Besides, under setting [2], the Emax is above 60%. As for `CC(=O)Nc1cnc(CN2C(=O)c3cccc(c3)S(=O)(=O)Nc3nc(cc(-c4c(C)cccc4C)n3)OC[C@H]2CC(C)(C)C)nc1` [Compound 1513], the activation at 10 µM (HBE assay, 10 μM, read-out: HBE Activity at 10 μM (%)) is above 60%. Consider `Cc1cccc(C)c1-c1cc2nc(n1)NS(=O)(=O)c1cccc(c1)C(=O)N(CC1CC3(C1)CC(NC(=O)OC1CC1)C3)[C@H](CC(C)(C)C)CO2` (some centres unmarked) [Compound 1002], for which, under setting [3], the activation at 10 µM was above 600%.

Consider `CO[C@H]1C[C@@H](Oc2cnc(CN3C(=O)c4cccc(c4)S(=O)(=O)Nc4nc(cc(-c5c(C)cccc5C)n4)OC[C@H]3CC(C)C)nc2)C1` [Compound 1432], for which the EC50 (HBE assay) is below 1000 nM. Moreover, the Emax under setting [4] is above 60%. For the compound `Cc1cccc(C)c1-c1cc2nc(n1)NS(=O)(=O)c1cccc(c1)C(=O)N(Cc1ncc(N3CC[C@H]3C)cn1)[C@H](CC(C)(C)C)CO2` [Compound 1405], under “HBE assay”, the EC50 was below 1000 nM. In addition, the Emax under setting [4] was above 60%. Take `Cc1cccc(C)c1-c1cc2nc(n1)NS(=O)(=O)c1cccc(c1)C(=O)N(C[C@@H]1CN(CC(C)(C)C)CCO1)[C@H](CC(C)(C)C)CO2` [Compound 142, (11R)-6-(2,6-Dimethylphenyl)-11-(2,2-dimethylpropyl)-12-{[(2S)-4-(2,2-dimethylpropyl)morpholin-2-yl]methyl}-9-oxa-2λ^6-thia-3,5,12,19-tetraazatricyclo[12.3.1.14,8]nonadeca-1(17),4,6,8(19),14(18),15-hexaene-2,2,13-trione]: the concentration for a half-maximal effect (EC50) (Table 11) was below 1000 nM. The Emax under setting [2] is above 60%. As for `Cc1cccc(C)c1-c1cc2nc(n1)NS(=O)(=O)c1cccc(c1)C(=O)N(CC(=O)N1CCC(c3ccccc3)CC1)[C@H](CC(C)(C)C)CO2` [Compound 203], the activation at 10 µM under setting [3] is above 600%. Still for that read-out and setting: with `Cc1cccc(C)c1-c1cc2nc(n1)NS(=O)(=O)c1cccc(c1)C(=O)N(CC(=O)N1CCOCC1C(C)C)[C@H](CC(C)(C)C)CO2` (some centres unmarked) [Compound 212] the figure was above 600%. Regarding `CCCCN(c1cccc(CN2C(=O)c3cccc(c3)S(=O)(=O)Nc3nc(cc(-c4c(C)cccc4C)n3)OC[C@H]2CC(C)(C)C)n1)C(C)C` [Compound 1137], the EC50 (Table 13) was below 1000 nM. Further, the Emax under setting [1] is above 60%. For `Cc1cccc(C)c1-c1cc2nc(n1)NS(=O)(=O)c1cccc(c1)C(=O)N(Cc1nccc(N(C)C(C)C)n1)[C@H](CC1CC1)CO2` [Compound 459], the EC50 (Table 12) was below 1000 nM. Further, the Emax under setting [5] was above 60%. In the case of `Cc1cccc(C)c1-c1cc2nc(n1)NS(=O)(=O)c1cccc(c1)C(=O)N(Cc1ncc(C(C)C)s1)[C@H](CC(C)(C)C)CO2` [Compound 705], for the setting “Table 12”, the concentration giving a half-maximal response (EC50) was below 1000 nM. The Emax under setting [5] is above 60%.

With `Cc1cccc(CN2C(=O)c3cccc(c3)S(=O)(=O)Nc3nc(cc(-c4c(C)cccc4C)n3)OC[C@H]2CC(C)(C)C)n1` [Compound 465], the concentration for a half-maximal effect (EC50) (Table 11) is below 1000 nM. In addition, the Emax under setting [2] is above 60%.

On to `Cc1cccc(C)c1-c1cc2nc(n1)NS(=O)(=O)c1cccc(c1)C(=O)N(Cc1nc(Br)ccc1F)[C@H](CC(C)(C)C)CO2` [Compound 372], for which the activation at 10 µM under setting [3] is above 600%. As to `Cc1cccc(C)c1-c1cc2nc(n1)NS(=O)(=O)c1cccc(c1)C(=O)N(Cc1ccccc1OCC(=O)NN)[C@H](CC(C)(C)C)CO2` [Compound 777], the activation at 10 µM under setting [6] was above 60%. `COCCN(C)c1cnc(CN2C(=O)c3cccc(c3)S(=O)(=O)Nc3nc(cc(-c4c(C)cccc4C)n3)OC[C@H]2CC(C)(C)C)c(C)c1` [Compound 1381]: the half-maximal effective concentration (EC50) (HBE assay) is below 1000 nM. In addition, the Emax under setting [4] was above 60%. Take `CC(=O)N1CCN(c2cccc(CN3C(=O)c4cccc(c4)S(=O)(=O)Nc4nc(cc(-c5c(C)cccc5C)n4)OC[C@H]3CC(C)(C)C)n2)CC1` [Compound 253]: the activation at 10 µM under setting [3] is above 600%. As to `Cc1cccc(C)c1-c1cc2nc(n1)NS(=O)(=O)c1cccc(c1)C(=O)N(Cc1cccc(C3CCC(C)(C)CC3)n1)[C@H](CC(C)(C)C)CO2` [Compound 727], the EC50 (Table 11) was below 1000 nM. Further, the Emax under setting [2] is above 60%.

With `Cc1cccc(C)c1-c1cc2nc(n1)NS(=O)(=O)c1cccc(c1)C(=O)N(CC(=O)N1C[C@@H](C)[C@@H](C)C1)[C@H](CC(C)(C)C)CO2` [Compound 202], under setting [3], the activation at 10 µM is above 600%.

Consider `Cc1cccc(C)c1-c1cc2nc(n1)NS(=O)(=O)c1cccc(c1)C(=O)N(Cc1ncc(OC3CCOCC3)cn1)[C@H](CC(C)(C)C)CO2` [Compound 556], for which, where the note is “Table 12”, the 50% effective concentration (EC50) is below 1000 nM. For the same compound, under setting [5], the Emax was above 60%. In the case of `Cc1cccc(C)c1-c1cc2nc(n1)NS(=O)(=O)c1cccc(c1)C(=O)N(Cc1ncccc1F)[C@H](CC(C)(C)C)CO2` [Compound 1068], the 50% effective concentration (EC50) (Table 13) was below 1000 nM. In addition, the Emax under setting [1] was above 60%. Regarding `COCCN(c1cccc(CN2C(=O)c3cccc(c3)S(=O)(=O)Nc3nc(cc(-c4c(C)cccc4C)n3)OC[C@H]2CC(C)(C)C)n1)C(C)C` [Compound 564], the EC50 (Table 12) was below 1000 nM. Moreover, the Emax under setting [5] was above 60%.

For `Cc1cccc(C)c1-c1cc2nc(n1)NS(=O)(=O)c1cccc(c1)C(=O)N(Cc1ncc(N3CCC4(COC4)C3)cn1)[C@H](CC(C)(C)C)CO2` [Compound 580], the EC50 (Table 12) is below 1000 nM. In addition, the Emax under setting [5] is above 60%.

With `COCCN(c1cncc(CN2C(=O)c3cccc(c3)S(=O)(=O)Nc3nc(cc(-c4c(C)cccc4C)n3)OC[C@H]2CC(C)(C)C)n1)C1CCCC1` [Compound 1437], the EC50 (HBE assay) was below 1000 nM. Moreover, the Emax under setting [4] was above 60%. `Cc1cccc(C)c1-c1cc2nc(n1)NS(=O)(=O)c1cccc(c1)C(=O)N(Cc1ncc(OC(C)C)cn1)[C@H](CC(C)(C)C(F)(F)F)CO2` [Compound 1121]: the concentration for a half-maximal effect (EC50) (Table 13) is below 1000 nM. Further, the Emax under setting [1] was above 60%. Regarding `Cc1cccc(C)c1-c1cc2nc(n1)NS(=O)(=O)c1cccc(c1)C(=O)N(CCc1cccc(N3CCOCC3)n1)[C@H](CC(C)(C)C)CO2` [Compound 110, (11R)-6-(2,6-Dimethylphenyl)-11-(2,2-dimethylpropyl)-12-[2-(6-morpholino-2-pyridyl)ethyl]-2,2-dioxo-9-oxa-2λ^6-thia-3,5,12,19-tetrazatricyclo[12.3.1.14,8]nonadeca-1(18),4(19),5,7,14,16-hexaen-13-one], the activation at 10 µM (Table 11, at 10 μM, read-out: HBE Activity at 10 μM (%)) is above 60%. The concentration for a half-maximal effect (EC50) (Table 11) was below 1000 nM. The Emax under setting [2] was above 60%. In the case of `Cc1cccc(C)c1-c1cc2nc(n1)NS(=O)(=O)c1cccc(c1)C(=O)N(CC1(NC(=O)OC(C)(C)C)CC3(CCC3)C1)[C@H](CC(C)(C)C)CO2` [Compound 999], the activation at 10 µM under setting [3] is above 600%.

On to `Cc1cccc(C)c1-c1cc2nc(n1)NS(=O)(=O)c1cccc(c1)C(=O)N(Cc1nc(N(C)CC(C)(C)C)ccc1F)[C@H](CC(C)(C)C)CO2` [Compound 371], for which the EC50 (Table 13) is below 1000 nM. For the same compound, the Emax under setting [1] was above 60%.

As to `COCC1CCCN1c1cccc(CN2C(=O)c3cccc(c3)S(=O)(=O)Nc3nc(cc(-c4c(C)cccc4C)n3)OC[C@H]2CC(C)(C)C)n1` (stereo partly drawn) [Compound 129, (11R)-6-(2,6-Dimethylphenyl)-11-(2,2-dimethylpropyl)-12-[[6-[2-(methoxymethyl)pyrrolidin-1-yl]-2-pyridyl]methyl]-2,2-dioxo-9-oxa-2λ^6-thia-3,5,12,19-tetrazatricyclo[12.3.1.14,8]nonadeca-1(18),4(19),5,7,14,16-hexaen-13-one], under “Table 10”, the concentration for a half-maximal effect (EC50) was below 1000 nM. In addition, the activation at 10 µM (read-out: HBE Activity at 10 μM (%)) was above 60%. Also, the Emax (read-out: HBE Max activity (%)) was above 60%. As for `Cc1cccc(C)c1-c1cc2nc(n1)NS(=O)(=O)c1cccc(c1)C(=O)N(Cc1coc(C(C)C)n1)[C@H](CC(C)(C)C)CO2` [Compound 703], where the note is “Table 12”, the EC50 was below 1000 nM. Under setting [5], the Emax is above 60%.

As to `COCCNc1cccnc1CN1C(=O)c2cccc(c2)S(=O)(=O)Nc2nc(cc(-c3c(C)cccc3C)n2)OC[C@H]1CC(C)(C)C` [Compound 378], under “Table 10”, the EC50 is below 1000 nM. In addition, the Emax (Table 10, read-out: HBE Max activity (%)) is above 60%. Take `Cc1cccc(C)c1-c1cc2nc(n1)NS(=O)(=O)c1cccc(c1)C(=O)N(Cc1ncc(OCC(F)(F)F)cn1)[C@H](CC(C)(C)C)CO2` [Compound 1431]: the EC50 (HBE assay) was below 1000 nM. Besides, the Emax under setting [4] was above 60%. With `Cc1cccc(C)c1-c1nc2nc(c1C)OC[C@@H](CC(C)(C)C)N1Cc3cc(F)c(O)c(F)c3OC1c1cccc(c1)S(=O)(=O)N2` (some centres unmarked) [Compound 763], under setting [6], the activation at 10 µM is above 60%. For the compound `Cc1cccc(C)c1-c1cc2nc(n1)NS(=O)(=O)c1cccc(c1)C(=O)N(Cc1nccc(N(C)C3CCCC3)n1)[C@H](CC(C)(C)C)CO2` [Compound 617], the EC50 (Table 11) lay in the range of 1000 to 3000 nM. Under setting [2], the Emax is above 60%. In the case of `Cc1cccc(C)c1-c1cc2nc(n1)NS(=O)(=O)c1cccc(c1)C(=O)N(CC(=O)N[C@H]1CC[C@H](C)CC1)[C@H](CC(C)(C)C)CO2` [Compound 194], the activation at 10 µM under setting [3] is above 600%. On the same count and under the same terms, with `Cc1cccc(C)c1-c1cc2nc(n1)NS(=O)(=O)c1cccc(c1)C(=O)N(CC(=O)N1CCCCC1c1ccc(F)cc1)[C@H](CC(C)(C)C)CO2` (some centres unmarked) [Compound 177] the figure was above 600%.
